# In article PMC12040169 (PLOS Biology, 2025):
# Assay: in vitro
# Conditions: human, hela cells, % viability
Structure (SMILES),"viability at 28.5 h, 10 µM","viability at 28.5 h, 10 µM (bulk resorufin, single well)"
O=C(N/N=C/c1c[nH]c2ccc(Br)cc12)c1ccncc1 [CBK262798],116%,–
O=C1/C(=C/c2ccccc2)S/C(=N/N=C/c2ccccc2)N1c1ccc(O)cc1 [CBK262803],89.6%,–
COc1ccc(/C(C)=N/NC(=N)SC2CC(=O)N(c3ccc(C(=O)O)cc3)C2=O)cc1F (stereo not shown) [CBK262805],107%,–
CC(=O)ON=C1c2cc(S(=O)(=O)N(C)C)ccc2-c2ccc(S(=O)(=O)N(C)C)cc21 [CBK262807],87.1%,–
Cc1cc(O)cc(O)c1/C=N\NC(=O)C1COc2cc3ccccc3cc2O1 (stereo not shown) [CBK262809],80.4%,–
O=S(=O)(NCC(c1ccccc1)N1CCNCC1)c1ccccc1 (stereo not shown) [CBK262813],105%,–
O=C(N/N=C/c1ccc(Cl)cc1Cl)c1nc(-c2ccccc2)cc(-c2ccccc2)n1 [CBK262814],90.1%,–
Nc1nonc1-n1nnc(C(=O)N/N=C/c2nc3ccccc3[nH]2)c1-c1ccccc1 [CBK262815],93.8%,–
O=C(CSc1nnc(-c2ccncc2)n1-c1ccccc1)N/N=C/c1c[nH]c2ccc(Br)cc12 [CBK262816],91.5%,–
O=[N+]([O-])c1ccc(OC(CNS(=O)(=O)c2ccc(Cl)cc2)c2ccccc2)cc1 (stereo not shown) [CBK262817],93%,–
CCOc1ccc(C(=O)Nc2ccc(-c3nc4cc(C)c(C)cc4o3)cc2)cc1[N+](=O)[O-] [CBK262818],94.2%,–
NC(=O)c1c(NC(=O)COc2ccccc2[N+](=O)[O-])sc2c1CCC2 [CBK262819],105%,–
Cc1cc(C(=O)Nc2ccc(-c3nc4ccccc4s3)c(O)c2)ccc1[N+](=O)[O-] [CBK262820],92.6%,–
O=C(CCN1C(=O)/C(=C/c2ccc(F)cc2)SC1=S)NNC(=O)c1ccncc1 [CBK262821],92.4%,–
O=C(O)c1ccc(CN2C(=O)c3ccc(C(=O)O)cc3C2=O)cc1 [CBK262823],93.7%,–
COc1cc(Cl)cc(/C=N\NC(=O)C2C(=O)NCC2c2ccccc2)c1O (stereo not shown) [CBK262825],91.8%,–
C/C(=N\NC(=O)c1nc(-c2ccccc2)cc(-c2ccccc2)n1)c1ccc(F)cc1 [CBK262826],110%,–
CC1CCCN(CC(O)COCc2ccc3c(c2)OCO3)C1 (stereo not shown) [CBK262830C],105%,–
O=C(N/N=C\c1ccc(-c2ccc(Cl)c(Cl)c2)o1)C1COc2cc3ccccc3cc2O1 (stereo not shown) [CBK262834],99%,–
COc1c(O)ccc(/C=N\NC(=O)C2COc3cc4ccccc4cc3O2)c1[N+](=O)[O-] (stereo not shown) [CBK262836],86.9%,–
Cc1ccc(NC(=O)CN2C(=O)c3ccccc3C2=O)c(C(=O)O)c1 [CBK262837],87.5%,–

Structure (SMILES),"viability at 28.5 h, 10 µM","viability at 28.5 h, 10 µM (bulk resorufin, single well)"
CC(Oc1cccc2cccnc12)C(=O)N/N=C/c1ccc(-c2ccc(Br)cc2)o1 (stereo not shown) [CBK262838],93.4%,–
O=C(NC(C(=O)N/N=C/c1ccc(O)cc1)c1n[nH]c(=O)c2ccccc12)c1ccccc1 (stereo not shown) [CBK262839],116%,–
CC1(C)NC(=O)N(CC(O)COc2ccc([N+](=O)[O-])cc2)C1=O (stereo not shown) [CBK262840],98.8%,–
COc1cc(/C=N/Nc2nc(-c3ccccc3)cc(-c3ccc(OC)c(OC)c3)n2)ccc1O [CBK262841],52.2%,–
Cc1nnc(SCC(=O)N/N=C/c2coc3ccccc3c2=O)n1-c1ccccc1 [CBK262842],90.3%,–
O=C(O)c1ccccc1-c1ccccc1C(=O)Nc1ccccc1-c1ccccc1 [CBK262843],84.4%,–
CC1=CC(C)C2(COC(=O)Nc3ccccc3)COC(c3cccnc3)C1C2C (stereo not shown) [CBK262844],86.2%,–
O=C(Nc1cccc(-c2nc3ncccc3o2)c1)c1ccc(Cl)c([N+](=O)[O-])c1 [CBK262845],88.8%,–
CCOc1cccc(/C=N\NC(=O)C2COc3cc4ccccc4cc3O2)c1O (stereo not shown) [CBK262846],110%,–
O=C(NC(C(=O)N/N=C/c1coc2ccccc2c1=O)c1n[nH]c(=O)c2ccccc12)c1ccccc1 (stereo not shown) [CBK262847],95.3%,–
O=[N+]([O-])c1ccc(N2CCNCC2)cc1NCCO [CBK262851],75.1%,–
O=c1oc(-c2cccc(F)c2)nc2ccc(Cc3ccc4nc(-c5cccc(F)c5)oc(=O)c4c3)cc12 [CBK262856],120%,–
CC(=O)Nc1ccc(C(=O)Nc2ccc(-c3nc4ccccc4[nH]3)cc2)cc1 [CBK262857],84.9%,–
NNc1nc(-c2ccc(Br)cc2)nc2ccccc12 [CBK262860],94.6%,–
Cc1ccccc1NC(=O)Nc1ccc(OCc2ccccc2)cc1 [CBK262861],108%,–
O=C(CCN1C(=O)/C(=C/c2ccc(F)cc2)SC1=S)NNC(=O)c1cccnc1 [CBK262862],104%,–
O=C(CSc1nnc(-c2ccccc2)n1-c1ccccc1)N/N=C/c1cccc2cccnc12 [CBK262863],91%,–
Cc1cc(C)nc(N/N=C/c2cn(-c3ccccc3)nc2-c2ccc([N+](=O)[O-])cc2)n1 [CBK262864],90.5%,–
O=C(CSc1nnc(-c2ccncc2)n1-c1ccccc1)N/N=C/c1coc2ccccc2c1=O [CBK262866],101%,–
CCOc1ccc(C(=O)Nc2ccc(Cc3ccncc3)cc2)cc1[N+](=O)[O-] [CBK262867],114%,–
Cc1onc(-c2ccccc2)c1C(=O)NCCCn1ccnc1 [CBK262870],96.2%,–

Structure (SMILES),"viability at 28.5 h, 10 µM","viability at 28.5 h, 10 µM (bulk resorufin, single well)"
Cc1ccc(C(C)(C)CC(C)NC2C3CC4CC(C3)CC2C4)o1 (stereo not shown) [CBK262871],93.9%,–
Cc1ccc(C(C)(C)CC(C)NCc2cccc(C(F)(F)F)c2)o1 (stereo not shown) [CBK262872],95%,–
Cc1ccc(C(C)(C)CC(C)NCc2ccc(Cl)cc2)o1 (stereo not shown) [CBK262873],95.8%,–
Cc1ccccc1-n1nnnc1C(c1ccccc1)N(C)Cc1cccc([N+](=O)[O-])c1 (stereo not shown) [CBK262878],91%,–
COc1ccc(CN2CCCn3c4c(c5cc(C)ccc53)CCCC42)cc1OCc1ccccc1 (stereo not shown) [CBK262879],96.4%,–
COc1cc(/C=N/NC(=O)c2n[nH]c3c2CCC3)ccc1O [CBK262881],109%,–
O=C(N/N=C/c1ccccn1)c1n[nH]c2c1CCCC2 [CBK262882],90.8%,–
O=C(N/N=C/c1c[nH]c2ccccc12)c1cc(-c2ccc3ccccc3c2)[nH]n1 [CBK262885],54.8%,–
Cc1n[nH]c(C)c1CCC(=O)N/N=C/c1ccccn1 [CBK262887],92.9%,–
Cc1n[nH]c(C)c1CCC(=O)N/N=C/c1ccncc1 [CBK262888],112%,–
Cn1c(=O)c2[nH]c(NN=C3C(=O)NC(=O)NC3=O)nc2n(C)c1=O [CBK262891],–,103%
COc1ccc(/C=N/NC(=O)CCc2c(C)n[nH]c2C)cc1O [CBK262894],93.6%,–
N=c1n(CCN2CCOCC2)c2ccccc2n1CC(O)c1cccs1 (stereo not shown) [CBK262895C],99.1%,–
CCCC1=NN(c2ccc([N+](=O)[O-])cc2)C(=O)/C1=C/NC1CC(C)(C)NC(C)(C)C1 [CBK262896],84.9%,–
OCCCn1c(-c2ccc(Cl)cc2)cn2c3ccccc3nc12 [CBK262900],103%,–
COC(=O)c1ccc(/C=N/NC(=O)CCc2c(C)n[nH]c2C)cc1 [CBK262904],117%,–
CC(C)(C)c1cc(-n2c(-c3cccnc3)nc3ccccc32)cc(C(C)(C)C)c1O [CBK262907],103%,–
N=c1n(CCN2CCCCC2)c2ccccc2n1CC(O)c1cccs1 (stereo not shown) [CBK262908C],94.9%,–
CN1CCc2c(sc3c2C(=O)NC(/C=C\c2ccc([N+](=O)[O-])cc2)N3)C1 (stereo not shown) [CBK262909],86.3%,–
Cc1n[nH]c(C)c1CCC(=O)N/N=C/c1cccc(O)c1 [CBK262910],97.7%,–
CCOc1ccc(C(O)Cn2c(=N)n(CCN3CCCCC3)c3ccccc32)cc1 (stereo not shown) [CBK262913C],111%,–

Structure (SMILES),"viability at 28.5 h, 10 µM","viability at 28.5 h, 10 µM (bulk resorufin, single well)"
N=c1n(CC(=O)O)c2ccccc2n1Cc1ccccc1Cl [CBK262917B],90.3%,–
COc1cc2c(cc1OC)CN(/C=N/c1sc3c(c1C#N)CC(C)(C)NC3(C)C)CC2 [CBK262918],105%,–
Cc1cc(=O)n2ncnc2n1COCCO [CBK262919],97.4%,–
CC1=NN(c2ccc([N+](=O)[O-])cc2)C(=O)/C1=C/NCCN1CCN(C(=O)c2ccc(F)cc2)CC1 [CBK262920],95.1%,–
CC1=NNC(=O)C1CCC(=O)N/N=C/C(Br)=C/c1ccccc1 (stereo not shown) [CBK262929],100%,–
O=C(Cn1nnc2ccccc21)N/N=C\c1cccc(Cl)c1Cl [CBK262931],92.4%,–
C/C(=N/OCC(=O)Nc1oc(-c2ccccc2)c(-c2ccccc2)c1C#N)c1cccs1 [CBK262932],89.6%,–
Cc1ccc(S(=O)(=O)NCCCN2CCOCC2)cc1C [CBK262934],96.6%,–
c1ccc(OCc2nc3c4c(-c5ccccc5)c(-c5ccccc5)oc4ncn3n2)cc1 [CBK262939],94.6%,–
CNC(=S)N(Cc1ccc(S(N)(=O)=O)cc1)C1CC(=O)N(c2ccc(OC)cc2)C1=O (stereo not shown) [CBK262940],95.1%,–
CC1(C)CC(=O)C2=C(C1)c1c(ccc3ccccc13)NC2c1ccc(N2CCC(Cc3ccccc3)CC2)c([N+](=O)[O-])c1 (stereo not shown) [CBK262944],94.2%,–
CCn1c2ccccc2c2ccc(/C=N/NC(=O)c3ccc(O)cc3O)cc21 [CBK262948],56.9%,–
O=C(COc1ccc(Cl)cc1Br)NNC(=O)c1ccc(O)cc1 [CBK262950],95.5%,–
O=C(NCc1ccccc1)C(=O)NNC(=O)C12CC3CC(CC(C3)C1)C2 [CBK262951],94.9%,–
COc1cc2c(cc1NC(=O)C/C(C)=N/NC(=O)c1ccoc1C)oc1ccccc12 [CBK262953],112%,–
O=C(NCCCn1ccnc1)c1ccccc1C(=O)c1ccccc1 [CBK262954],93.2%,–
COc1ccccc1CC(=O)NNC(=O)c1ccco1 [CBK262956],91.6%,–
C/C(CC(=O)Nc1ccccc1C(N)=O)=N\NC(=O)c1ccoc1C [CBK262957],100%,–
COc1cc2c(cc1NC(=O)c1cccc([N+](=O)[O-])c1)oc1ccccc12 [CBK262958],94.4%,–
